Here are results for one molecule from paper PMC9738107, “Targeting of the ELR+CXCL/CXCR1/2 Pathway Is a Relevant Strategy for the Treatment of Paediatric Medulloblastomas” (Cells, 2022).

Several values for one entry are separate records, joined by “and”; a condition that tells them apart may be missing. Identical values can stand only once.

Series [1] concerns ONS-76 cells. Nature of the series: Pseudo-vessel formation on Matrigel. It is filed as cell-based, human. How it is done:
(§1) Figure 6 C29 inhibits the formation of pseudo vessel structures. (A) Formation of pseudo-vessels by Daoy cells, ONS-76, and HD-MB03 cultured on Matrigel and treated with Control (DMSO) or C29 (1 or 2.5 µM); n = 3. (B) Number of meshes (geometric units of the net formed by the cells on the matrigel surface) were counted with ImageJ. Statistics were performed using Student t-test for only 2 comparisons or ANOVA test for multiple comparisons. *** p < 0.001, scale = 500 μm. […]
(§2) Pseudo‐vessels formation assays
(§3) The cells were deprived of serum overnight. They were then seeded (75000 Daoy
(§4) with Matrigel Matrix, hESC‐Qualified (VWR). Plates were then incubated at 37 °C, 5%
(§5) CO2 for 24 hours. Representative images were taken with the Evos XL Core Cell Imaging
(§6) System at low magnification (4X). For each image, we determined the number of meshes
(§7) (number of geometric units of the net formed by the cells seeded on the matrigel surface). […]

Series [2] concerns Daoy cells. In words: Pseudo-vessel formation on Matrigel. It is filed as cell-based, human. How it is done: as §1, §2, §3, §4, §5, §6, §7
The test system of series [3] is HD-MB03 cells. Nature of the series: Pseudo-vessel formation on Matrigel. It is filed as cell-based, human. To be noted: HD-MB03, 1 µM. How it is done:
as §1, §2, §3, §4, §5, §6, §7

The test system of series [4] is ONS-76 cells. Nature of the series: Clonogenic assay. The class given is cell-based, human. The procedure:
(§8) Figure 4 C29 reduces proliferation, migration, and invasion of naïve MB cells. (A) Proliferation of Daoy, ONS-76, HD-MB03, and D341Med wild-type cells after treatment with 1 μM C29 or the control (DMSO), n = 3. (B) Clonogenic assay on Daoy (n = 4), ONS-76 (n = 3) and HD -MB03 (n = 5) cells after treatment with control (DMSO) or C29 (1 μM or 2.5 μM). Scale = 500 μm. (C) Cell migration through the Boyden chamber of Daoy and ONS-76 cells specifically attracted by 200 ng/mL CXCL8. Results are expressed as percentage of control (DMSO) (n = 3). Scale = 1000 μm. (D) Spheroid invasion using 3D culture cell assays on Daoy (n = 4) and ONS-76 cells (n = 3) treated with control (DMSO) or C29 at a concentration of 1 μM on day 0, 1, and 2. Results are expressed as percentage of day 0, n = 4. Scale = 500 μm. Statistics were performed using Student t-test for 2 comparisons only or ANOVA test for multiple comparisons. * p < 0.05, ** p < 0.01, *** p < 0.001. […]
(§9) each month by using PlasmoTest Kit (#10L07‐MM, InvivoGen, Toulouse, France). Daoy and ONS‐76 belong to the Shh genetic subgroup, D341‐Med and HD‐MB03 to group 3. […]
(§10) 150 Daoy/DR1/DR2/ ONS ‐ 76 and 300 HD ‐ MB03/HR1/HR2 cells were seeded in trip‐ licate in 6‐well plates in the presence or absence of treatment (1 or 2∙5μM […] or DMSO as control). On day 9 (Daoy/ONS‐76) and day 11 (HD ‐MB03), cells were fixed in ice‐cold absolute ethanol (Sigma) for 20 min, washed with PBS and then stained with Giemsa 50% for 30 min. The number of clones was quantified using ImageJ software. We only considered clones containing more than 50 cells. […]
Violet. […]
(§11) 5000 cells were plated in 48 multi‐well plates coated with agarose 0∙8%. After two days, spheroids were mixed with 100μl of matrigel mix (200μl of matrigel (Corning Mat‐ rigel Matrix, Fontenay‐sous‐Bois, France), 100 μl collagen I (8 mg/ml, Corning), 80 μl HEPES 1M and 320μl respective medium) in 12 multi‐well plates. […]

Series [5] relates to Daoy cells. In words: Clonogenic assay. It is filed as cell-based, human. To be noted: 1 µM. The procedure: as §8, §9, §10
Violet. […]
as §11

Series [6] has as its system HD-MB03 cells. Nature of the series: Clonogenic assay. The class given is cell-based, human. To be noted: HD-MB03, 1 µM. How it is done:
as §8, §9, §10
Violet. […]
as §11

Series [7] is described as follows: Quantification of C29 in mouse cerebellum postmortem (LC/MS). The class given is in vivo. To be noted: for Amount of C29 in cerebellum: individual animals. How it is done:
A 5 mM stock solution of C29 (1.743 mg/mL) in DMSO was prepared. This solution was diluted with a mixture of acetonitrile/water, 8/4, v/v to produce the solution with the highest concentration: 1250 ng/1.2 mL. Successive dilutions with acetonitrile/water, 8/4, v/v provided 5 more standards with concentrations between 50 ng/mL and 1250 ng/mL.
Samples of cerebellum were prepared by dissolving minced biological material in 1.2 mL acetonitrile/water, 8/4, v/v. After sonication for 5 min, the vials were centrifuged (15,000 rpm) and the supernatant was filtered through a […] PTFE microfilter.
All standards and samples were analysed using a LC/MS system consisting of an Agilent 1100 HPLC chain with a degasser, a binary pump, a column oven, an automatic injector, and a UV detector. The column is a Phenomenex Gemini analytical column 3 µm C18 110 A 150 mm × 3 mm × 3 µm, at 25 °C. The solvents are water with 0.1% formic acid (solvent A) and acetonitrile with 0.1% formic acid (solvent B). The gradient is as follows: 10% B to 100% B over 8 min, 100% B over 6 min, 100% B to 10% B over 1 min, and 10% B over 3 min (total time: 18 min). The UV detection is carried out over the range of 190–400 nm (in 2 nm steps). The mass spectrometer is an LCQ Advantage (ThermoScientific, Waltham, MA, USA) of the “ion trap 3D” type, equipped with an electrospray source.
Mass spectrometric detection was carried out in negative mode and in SRM (single reaction monitoring) mode according to the monitoring of the 380.9–194.2 transition. The isolation span of the ion was 2 mass units (193.2–195.2). The applied normalized collision energy was 30%. Each standard and sample were injected in duplicate. Each duplicate was separated by a blank and the concentration of the standards ranged from […]. […] Signals were acquired based on their area and integrated using the ICIS algorithm according to the following parameters: smoothing points: 15; baseline window: 75 scans; area noise factor: 5; peak noise factor: 10. Calibration is external, and the regression was linear. The origin was included in the calibration.
A critical and limiting feature of a drug targeting MB is its ability to cross the blood–brain barrier (BBB) and reach the tumour in the brain. […] However, after 5 days of treatment, 24 h after the last administration, no more C29 was found in the cerebellum of the mice.

As to `O=C(Nc1cccc(Cl)c1)Nc1nc2ccc([N+](=O)[O-])cc2s1` [C29, 1-(3-chlorophenyl)-3-(6-nitrobenzo[d]thiazol-2-yl) urea], the Pseudo-vasculature formation result in the series on ONS-76 cells [1] (ONS-76, 1 µM) was “some vascular structures were retained”; with ONS-76 cells [1] (ONS-76, 2.5 µM), “completely lost this ability”; in the series with Daoy cells [2] (1 µM), “inhibited this ability”; with Daoy cells [2] (2.5 µM), “inhibited this ability”. The “Number of meshes (pseudo-vessels)” value in the series with HD-MB03 cells [3] is recorded as “significantly reduced the number of meshes”. In addition, the Clone formation entry in the series on ONS-76 cells [4] (ONS-76, 1 µM) is given as “some clones were maintained”; in the series on ONS-76 cells [4] (ONS-76, 2.5 µM), “disappeared completely”; with Daoy cells [5], “inhibited clone formation”; in the series on HD-MB03 cells [6] it was “inhibited clone formation”. Further, in series [7] (5 days of treatment, 24 h after the last administration), the “Accumulation in cerebellum upon repeated administration” value is “does not accumulate”. Further, the “Amount of C29 in cerebellum” value in series [7] (gavage 100 mg/kg daily, chronic (5 days), 24 h after last treatment) is 0 ng C29/mg cerebellum; in series [7] (gavage 100 mg/kg, acute (3 h), 100 mg/kg), 0 ng C29/mg cerebellum and 5.394 ng C29/mg cerebellum; in series [7] (gavage 200 mg/kg daily, chronic (5 days), 24 h after last treatment), 0 ng C29/mg cerebellum; in series [7] (gavage 200 mg/kg, acute (3 h), 200 mg/kg), 13.1 ng C29/mg cerebellum and 9.3 ng C29/mg cerebellum and 7.4 ng C29/mg cerebellum and 4.7 ng C29/mg cerebellum and 6.4 ng C29/mg cerebellum. Further, the “Blood–brain barrier crossing” value in series [7] (oral administration) is “can cross the blood–brain barrier”.
